Measurements reported in ChEMBL document CHEMBL3244083, “Fluorinated Pyrimidine nucleosides. 1. Synthesis of a nitrogen analogue of the antitumor agent 2,2'-anhydro-1-beta-D-arabinofuranosyl-5-fluorocytosine hydrochloride” (J Med Chem, 1977).
One block for each molecule: values may come before it. Calls of active or inactive are those of the source. The calls are words filed in the database; no cut-off is given here.

Key:
[1] = Stability of the compound at pH 7.4; type: physicochemical; conditions: buffer
CCRF S-180 [2] = assay: Antitumor activity against mouse S180 cells allografted in mouse assessed as tumor growth inhibition at 100 mg/kg, ip qd for 8 days; type: functional, organism-based; design: dose 100 mg/kg
CCRF S-180 [3] = assay: Antitumor activity against mouse S180 cells allografted in mouse assessed as tumor growth inhibition at 50 mg/kg, ip qd for 8 days; type: functional, organism-based; design: dose 50 mg/kg
CCRF S-180 [4] = assay: Antitumor activity against mouse S180 cells allografted in mouse assessed as tumor growth inhibition at 1 to 5 mg/kg, ip qd for 8 days; type: functional, organism-based
CCRF S-180 [5] = assay: Antitumor activity against mouse S180 cells allografted in mouse assessed as tumor growth inhibition at 5 mg/kg, ip qd for 8 days; type: functional, organism-based; design: dose 5 mg/kg

Stability [1]: Stable
SMILES: Nc1nc2[n+](cc1F)[C@@H]1O[C@H](CO)[C@@H](O)[C@@H]1N2.[Cl-]
TGI (CCRF S-180 [2]): inactive

SMILES: O=c1[nH]c(=O)n([C@@H]2O[C@H](CI)[C@@H](O)[C@H]2O)cc1F
TGI (CCRF S-180 [3]): inactive

Stability [1]: Stable
SMILES: O=c1nc2n(cc1F)[C@@H]1O[C@H](CO)[C@@H](O)[C@@H]1N2
TGI (CCRF S-180 [3]): inactive

SMILES: Nc1nc(=O)n([C@@H]2O[C@H](CO)[C@@H](O)[C@H]2O)cc1F
TGI (CCRF S-180 [4]): Active

SMILES: Nc1nc(=O)c(F)cn1[C@@H]1O[C@H](CO)[C@@H](O)[C@H]1O
TGI (CCRF S-180 [3]): inactive

SMILES: Nc1nc(N)[n+]([C@@H]2O[C@H](CO)[C@@H](O)[C@H]2O)cc1F
TGI (CCRF S-180 [3]): inactive

SMILES: O=c1[nH]c(=O)n([C@@H]2O[C@H](CO)[C@@H](O)[C@H]2O)cc1F
TGI (CCRF S-180 [5]): Active
